Read-outs that look alike come from different tables or passages of the source.
What was measured:
[1] = system: Aβ40 peptides generated from SH-SY5Y cells expressing amyloid β protein (SP4CT cells); experiment: APP processing AlphaLisa assay, secreted Aβ40; assay type: cell-based; conditions: average of at least >4 replicates, read-out: AB40 IC50 AVG
Method: (§1) APP Processing (Assay Quantitates Secreted Aβ Analytes from Cell Lines):
(§2) The effect of compounds on the abundance of Aβ40 and Aβ42 peptides generated from SH-SY5Y cells expressing amyloid β protein (SP4CT cells) was determined by an AlphaLisa™ assay. Analogous to an ELISA assay, generation of signal in this AlphaLisa™ assay requires “donor” and “acceptor” beads to be brought in close proximity by specific antibody recognition of either Aβ40 or Aβ42 peptides. The assay was accomplished by removing media from compound-treated SP4CT cells to two different microplates, followed by the addition of donor beads conjugated with streptavidin binding a biotinylated anti-amyloid β monoclonal antibody (clone 4G8). Acceptor beads directly conjugated with anti-Aβ40 monoclonal antibody (G210) were added to one microplate and anti-Aβ42 monoclonal antibody (12F4) acceptor beads were added to the other. Abundance of Aβ40 and Aβ42 was directly proportional to the luminescent signal generated following excitation of donor beads by laser light.

[2] = system: Aβ42 peptides generated from SH-SY5Y cells expressing amyloid β protein (SP4CT cells); experiment: APP processing AlphaLisa assay, secreted Aβ42; assay type: cell-based; conditions: average of at least >4 replicates, read-out: AB42 IC50 AVG
Method: as §1, §2

[3] = system: gamma secretase-dependent cleavage of the Notch protein (NotchΔE) in HeLa cells; experiment: Notch processing split-luciferase assay (Notch intracellular domain release); assay type: cell-based; conditions: average of at least >4 replicates, read-out: Notch IC50 AVG
From the text: Notch Processing: (Assay Quantitates Notch Intracellular Domain Release in Cell Lines):
A “split-luciferase” assay is used to measure inhibition of gamma secretase-dependent cleavage of the Notch protein. In this assay, HeLa cells were made to express a Notch protein lacking its extracellular domain (NotchΔE) fused to an N-terminal fragment of luciferase. The same cells also expressed a C-terminal fragment of luciferase fused to the immunoglobulin J kappa recombination signal sequence binding protein (RBP). Upon NotchΔE cleavage by gamma secretase, a Notch intracellular domain (NICD)-N terminal luciferase protein is generated which translocates to the nucleus and binds the RBP-C terminal luciferase fusion, bringing two independently nonfunctional halves of luciferase together to form a functional luciferase enzyme. The activity of luciferase in these cells is directly proportional to the amount of gamma secretase-cleaved Notch. Luciferase activity is determined by the standard techniques of luciferin addition to lysed cells and measurement of total luminescence.

[4] = target: T1, pregnane X receptor (PXR) (Homo sapiens, UniProt O75469); experiment: PXR assay (CYP3A4-SEAP transactivation assay, PCSTA); assay type: cell-based; conditions: for EC50: HEP G2 cells
T1 construct: expressed in transfected cells; host or cells: HEP G2
T1 sequence (O75469 1-434): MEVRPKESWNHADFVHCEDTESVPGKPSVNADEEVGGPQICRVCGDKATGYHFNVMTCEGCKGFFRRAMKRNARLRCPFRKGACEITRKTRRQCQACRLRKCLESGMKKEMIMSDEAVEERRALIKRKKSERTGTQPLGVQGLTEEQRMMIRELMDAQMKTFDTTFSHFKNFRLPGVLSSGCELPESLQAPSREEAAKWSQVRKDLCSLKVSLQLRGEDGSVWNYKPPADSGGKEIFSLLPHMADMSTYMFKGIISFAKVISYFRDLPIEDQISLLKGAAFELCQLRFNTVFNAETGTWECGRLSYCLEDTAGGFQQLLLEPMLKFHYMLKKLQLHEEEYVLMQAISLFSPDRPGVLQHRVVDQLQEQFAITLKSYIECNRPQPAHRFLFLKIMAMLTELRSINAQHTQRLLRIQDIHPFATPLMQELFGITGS
T1 sequence (P19793 1-462 partner): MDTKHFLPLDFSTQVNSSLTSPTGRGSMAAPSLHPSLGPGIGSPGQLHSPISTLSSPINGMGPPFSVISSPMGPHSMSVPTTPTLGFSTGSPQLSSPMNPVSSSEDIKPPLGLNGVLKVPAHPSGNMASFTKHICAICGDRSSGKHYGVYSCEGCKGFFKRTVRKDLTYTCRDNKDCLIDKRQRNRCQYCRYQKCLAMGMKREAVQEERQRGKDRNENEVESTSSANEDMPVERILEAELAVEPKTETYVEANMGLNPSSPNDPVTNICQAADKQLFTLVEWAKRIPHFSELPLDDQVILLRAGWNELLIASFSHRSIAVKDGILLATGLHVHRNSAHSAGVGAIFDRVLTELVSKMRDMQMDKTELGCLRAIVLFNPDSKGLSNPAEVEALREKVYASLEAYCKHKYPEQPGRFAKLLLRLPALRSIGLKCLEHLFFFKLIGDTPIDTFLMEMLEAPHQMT
From the text: The CYP3A4-SEAP transactivation assay (PCSTA) effectively and rapidly evaluates compounds for their potential to induce cytochrome P450 CYP3A (human CYP3A4 or rat CYP3A1). The reporter construct contains regulatory regions from the CYP3A4 gene positioned just upstream of a secreted alkaline phosphatase (SEAP) gene. The human PXR nuclear receptor has been modified at the 5′-end so that methionine is the initiating amino acid replacing leucine found in the wild-type sequence. HEP G2 cells are transfected with the PXR plasmid (human or rat) and the reporter plasmid. Read-out for the induction of CYP3A4 consists of a SEAP calorimetric assay with para-nitro-phenyl phosphate (pNPP) as the substrate. Five point dose-response curves in duplicate are then generated with each point corresponding to the rate of conversion of pNPP to pNP by SEAP. For the human PCSTA, rifampicin is used as the positive control and 100% induction is based upon the maximum induction produced by rifampicin at 10 μM.

[5] = covalent protein binding assay with liver microsomes; assay type: in vitro ADME; conditions: radiolabeled compound incubated with human liver microsomes
Method: MRK-560 and Example 2 were tested in a covalent protein binding assay which is predictive of drug toxicity. The potential of drug candidates to cause covalent binding to proteins is evaluated by incubation of the radiolabeled version of the compound in question with liver microsomes. A semi-automated method based on Brandel Harvester technique is then used to measure the formation of covalent adducts of the test compound to liver proteins binding (Ref. Day et. al, J Pharmacol Toxicol Methods. 52, 278-85, 2005).

SMILES	IC50 ([1]; Homo sapiens, SH-SY5Y) [nM]	IC50 ([2]; Homo sapiens, SH-SY5Y) [nM]	IC50 ([3]; Homo sapiens, HeLa) [µM]	PXR % Activation @ 10 uM [4] [%]	EC50 [4] [nM]	IC50 [1] [nM]	IC50 [2] [nM]	IC50 [3] [µM]	covalent protein binding (human microsomes) [5] [pmol/mg]
O=S(=O)(N(CCOC1CCCCO1)[C@H]1C[C@@](c2cc(F)ccc2F)(S(=O)(=O)c2ccc(Cl)cc2)C1)C(F)(F)F (stereo partly drawn) [Example 11, N-[cis-3-[(4-chlorophenyl)sulfonyl]-3-(2,5-difluorophenyl)cyclobutyl]-1,1,1-trifluoro-N-[2-(tetrahydro-2-pyran-2-yloxy)ethyl]methanesulfonamide]	43.4	36.9	2.54	86.5	826	–	–	–	–
O=C(O)CCCN([C@H]1C[C@@](c2cc(F)ccc2F)(S(=O)(=O)c2ccc(Cl)cc2)C1)S(=O)(=O)C(F)(F)F [Example 10, 4-{[cis-3-[(4-chlorophenyl)sulfonyl]-3-(2,5-difluorophenyl)cyclobutyl][(trifluoromethyl)sulfonyl]amino}butanoic acid]	35.2	30.7	8.31	76.7	1240	–	–	–	–
N#Cc1ccc(S(=O)(=O)C2(c3cc(F)ccc3F)CC(NS(=O)(=O)C(F)(F)F)C2)cc1 (stereo not drawn) [Example 9, N-[cis-3-[(4-cyanophenyl)sulfonyl]-3-(2,5-difluorophenyl)cyclobutyl]-1,1,1-trifluoromethanesulfonamide]	260	231	8.9	54.9	8360	–	–	–	–
CN(C1CC(c2cc(F)ccc2F)(S(=O)(=O)c2ccc(Cl)cc2)C1)S(=O)(=O)C(F)(F)F (stereo not shown) [Example 14, N-[3-[(4-chlorophenyl)sulfonyl]-3-(2,5-difluorophenyl)cyclobutyl]-1,1,1-trifluoro-N-methylmethanesulfonamide]	–	–	–	–	829	89.9	97.1	9.87	–
O=S(=O)(N[C@H]1C[C@@](c2cc(F)ccc2F)(S(=O)(=O)c2ccc(Cl)cc2)C1)C(F)(F)F [Example 2, N-[cis-3-[(4-chlorophenyl)sulfonyl]-3-(2,5-difluorophenyl)cyclobutyl]-1,1,1-trifluoromethanesulfonamide]	42.8	38.4	3.48	55.5	3430	–	–	–	380

The next lines start with results.

IC50 ([1]; Homo sapiens, SH-SY5Y) [nM]	IC50 ([2]; Homo sapiens, SH-SY5Y) [nM]	IC50 ([3]; Homo sapiens, HeLa) [µM]	PXR % Activation @ 10 uM [4] [%]	EC50 [4] [nM]	IC50 [1] [nM]	IC50 [2] [nM]	IC50 [3] [µM]	SMILES	covalent protein binding (human microsomes) [5] [pmol/mg]
96.7	67.9	32	100	1010	–	–	–	O=C(O)CN([C@H]1C[C@@](c2cc(F)ccc2F)(S(=O)(=O)c2ccc(Cl)cc2)C1)S(=O)(=O)C(F)(F)F [Example 16, N-[cis-3-[(4-chlorophenyl)sulfonyl]-3-(2,5-difluorophenyl)cyclobutyl]-N-[(trifluoromethyl)sulfonyl]glycine]	–
250	237	5.2	50.6	9650	–	–	–	O=S(=O)(N[C@H]1C[C@@](c2cc(F)ccc2F)(S(=O)(=O)c2ccc(OC(F)(F)F)cc2)C1)C(F)(F)F [Example 22, N-[cis-3-[(4-trifluoromethoxyphenyl)sulfonyl]-3-(2,5-difluorophenyl)cyclobutyl]-1,1,1-trifluoromethanesulfonamide]	–
37.3	37	5.21	74.6	848	–	–	–	C[C@]1(NS(=O)(=O)C(F)(F)F)C[C@@](c2cc(F)ccc2F)(S(=O)(=O)c2ccc(Cl)cc2)C1 [Example 17, N-[cis-3-[(4-chlorophenyl)sulfonyl]-3-(2,5-difluorophenyl)-1-methylcyclobutyl]-1,1,1-trifluoromethanesulfonamide]	–
